The record followed here is US6313111A, “Substituted 6H-1,3,4-thiadiazine-2-amines, the use thereof as anaesthetising, cardiovascular and hypometabolic agents, and pharmaceutical composition containing them” (priority 1998, dated 2001).

This assay is described as follows: rectal (body) temperature of mice measured with medicinal electrothermometer TREM-1. The assay is classed as in vivo, mice of the BALB line. The protocol:
In all cases tests were carried out on mice of the BALB line of 3-4 month age. […] In the case of water-soluble compounds, aqueous solutions of the test compounds were injected intraperitoneally (i.p.), while water-insoluble compounds were introduced orally (p.o.).
Rectal temperature changes (absolute magnitues in ° C.) were measured using a medicinal electrothermometer TREM-1 (Table 1). The rate of oxygen consumption was monitored by measuring concentration of oxygen in a closed testing unit with optic-acoustic gas analyser MN 5130. The data on oxygen consumption are given in percents relative to the starting content of oxygen taken as 100%. (Table 2).
Rectal temperature of mice was followed in dynamics after 5, 15, 30, 60, 120, 180, 240, 300, and 360 minutes (Table 3). […] The same decrease in temperature at 190 mg/kg dosage was reached after 15 minutes; in 1.5 hours it reached 22-25° C. and maintained this level over the next 5 hours, that is 13-17° C. below the initial value. After one day, body temperature was restored to the value of 94-96% of initial.

The mark [1] stands for this setting: p.o., 0 min, mg/kg: cpd 4 437.0, cpd 5 328.0, cpd 6 407.0, cpd 8 435.0.
The mark [2] stands for this setting: p.o., 30 min, mg/kg: cpd 4 437.0, cpd 5 328.0, cpd 6 407.0, cpd 8 435.0.
Where [3] appears, read: p.o., 60 min, mg/kg: cpd 4 437.0, cpd 5 328.0, cpd 6 407.0, cpd 8 435.0.
Setting [4] is: p.o., 120 min, mg/kg: cpd 4 437.0, cpd 5 328.0, cpd 7 407.0, cpd 8 435.0.
Setting [5] is: p.o., 180 min, mg/kg: cpd 4 437.0, cpd 7 407.0, cpd 8 435.0.
[6] abbreviates: p.o., 240 min, mg/kg: cpd 4 437.0, cpd 7 407.0, cpd 8 435.0.
Setting [7] is: p.o., 300 min, mg/kg: cpd 7 407.0, cpd 8 435.0.
Where [8] appears, read: i.p., 0 min, mg/kg: cpd 1 190.0, cpd 2 178.0, cpd 5 190.0, cpd 6 160.0.
[9] abbreviates: i.p., 30 min, mg/kg: cpd 1 190.0, cpd 2 178.0, cpd 5 190.0, cpd 6 160.0.
The mark [10] stands for this setting: i.p., 60 min, mg/kg: cpd 1 190.0, cpd 2 178.0, cpd 5 190.0, cpd 6 160.0.
Where [11] appears, read: i.p., 90 min, mg/kg: cpd 1 190.0, cpd 2 178.0, cpd 6 160.0.
Where [12] appears, read: i.p., 120 min, mg/kg: cpd 1 190.0, cpd 2 178.0, cpd 5 190.0, cpd 6 160.0.
[13] abbreviates: i.p., 180 min, mg/kg: cpd 1 190.0, cpd 2 178.0, cpd 5 190.0, cpd 6 160.0.
[14] abbreviates: i.p., 240 min, mg/kg: cpd 1 190.0, cpd 2 178.0, cpd 5 190.0, cpd 6 160.0.
Where [15] appears, read: i.p., 300 min, mg/kg: cpd 1 190.0, cpd 2 178.0, cpd 6 160.0.
Setting [16] is: p.o., 90 min, mg/kg: cpd 4 437.0, cpd 5 328.0, cpd 6 407.0.

On to `Br.Brc1cccc(C2=NN=C(N3CCSCC3)SC2)c1` [Compound 8, 2-Thiomorpholino-5-(3-bromophenyl)-6H-1,3,4-thiadiazine, hydrobromide], for which the body temperature under setting [1] came to 38.1 °C; the body temperature under setting [2] was 35.2 °C; the body temperature under setting [3] came out at 35.0 °C; the body temperature under setting [4] came to 33.4 °C; the body temperature under setting [5] is 33.5 °C; the body temperature under setting [6] was found to be 32.3 °C. Under setting [7], the body temperature is 33.9 °C.
With `CS(=O)(=O)O.c1ccc(C2=NN=C(N3CCSCC3)SC2)cc1` [Compound 6, 2-Thiomorpholino-5-phenyl-6H-1,3,4-thiadiazine, mesilate], the body temperature reads like this: under setting [8], 37.9 °C; under setting [9], 30.6 °C; under setting [10], 26.9 °C; under setting [11], 26.3 °C; under setting [12], 25.8 °C; under setting [13], 27.4 °C. The body temperature was found to be 28.9 °C under setting [14]; 30.9 °C under setting [15]; 37.7 °C under setting [1]; 34.0 °C under setting [2]; 33.4 °C under setting [3]; 32.6 °C under setting [16].
Turning to `Br.Brc1cccc(C2=NN=C(N3CCOCC3)SC2)c1` [Compound 4, 2-Morpholino-5-(3-bromophenyl)-6H-1,3,4-thiadiazine, hydrobromide], the body temperature reads like this: under setting [1], 38.0 °C; under setting [2], 35.9 °C; under setting [3], 33.8 °C; under setting [16], 33.5 °C; under setting [4], 32.9 °C; under setting [5], 33.1 °C. For the same compound, the body temperature under setting [6] is 32.8 °C.
Consider `Br.c1ccc(C2=NN=C(N3CCSCC3)SC2)cc1` [Compound 5, 2-Thiomorpholino-5-phenyl-6H-1,3,4-thiadiazine, hydrobromide], for which the body temperature reads like this: under setting [8], 38.0 °C; under setting [9], 28.0 °C; under setting [10], 27.1 °C; under setting [12], 25.0 °C; under setting [13], 23.3 °C; under setting [14], 23.6 °C. Besides, the body temperature is, setting by setting: under setting [1], 38.0 °C; under setting [2], 27.5 °C; under setting [3], 26.0 °C; under setting [16], 24.0 °C; under setting [4], 24.0 °C.
As for `Br.CCOc1ccc(C2=NN=C(N3CCSCC3)SC2)cc1` [Compound 7, 2-Thiomorpholino-5-(4-ethoxyphenyl)-6H-1,3,4-thiadiazine, hydrobromide], the body temperature turned out to be 33.5 °C under setting [4], 32.3 °C under setting [5], 30.6 °C under setting [6] and 30.6 °C under setting [7].
Turning to `CS(=O)(=O)O.c1ccc(C2=NN=C(N3CCOCC3)SC2)cc1` [Compound 2, 2-Morpholino-5-phenyl-6H-1,3,4-thiadiazine, mesilate], the body temperature runs as follows: under setting [8], 38.0 °C; under setting [9], 30.1 °C; under setting [10], 26.7 °C; under setting [11], 25.5 °C; under setting [12], 26.9 °C; under setting [13], 31.0 °C. Besides, the body temperature by setting is: under setting [14], 35.4 °C; under setting [15], 35.4 °C.
